Target: T1, D1-protein of the PSII reaction center (QB-plastoquinone-herbicide-binding protein) (Spinacia oleracea, UniProt P69560)
T1 construct: gene psbA; native protein in isolated spinach thylakoids; with photosystem II complex
Test: PSII chlorophyll fluorescence (PAM) in isolated thylakoids; block of Light 1-induced QA- re-oxidation
Assay type: biochemical

## CN(C)C(=O)Nc1ccc(Cl)c(Cl)c1 [DCMU, 3-(3,4-dichlorophenyl)-1,1-dimethylurea]
  Concentration blocking Light 1-induced QA- re-oxidation: 0.5 µM
